In US20090155209A1, “NOVEL MACROCYCLIC INHIBITORS OF HEPATITIS C VIRUS REPLICATION” (priority 2007, published 2009):
Several values for one entry are separate records, joined by “and”; a condition that tells them apart may be missing. Identical values can stand only once. Like-named read-outs stand apart in the source and are kept apart here.

Legend:
[1] = Single ascending dose study, fasted and fed: safety and non-compartmental plasma PK; assay type: in vivo, healthy volunteers (human); conditions: for median percentage change in AUC0-inf between the fasted and fed conditions: 10 subjects
Experimental: A single ascending dose (SAD) study of the compound 100 was conducted in healthy volunteers. The compound 100 was administered as monotherapy both with and without food. The safety and pharmacokinetic profile of the single dose of the compound 100 was assessed.
Interim, blinded data were used for Pharmacokinetic (PK) study relating to food effects. With the exception of the 400 mg cohort, eight subjects were studied at each dose (single doses of 100, 200, or 800 mg of the sodium salt of the compound 100, which may be referred to herein as ITMN-191, administered in the fasting state). In the 400 mg cohort, ten subjects received single 400 mg doses of ITMN-191 under both fasted and fed conditions with a 5-day washout period between dosing. In the 100 mg cohort, subjects were sampled within 1 hour before dosing and at 0.5, 1, 1.5, 2, 2.5, 3, 4, 6, 8, 12, 18, 24, 32 and 48 hours after dosing. For subsequent cohorts, subjects were sampled within 1 hour before dosing and at 0.25, 0.5, 1, 1.5, 2, 2.5, 3, 4, 6, 8, 12, 18, 24, and 32 hours after dosing. Nominal (not actual) sampling times were used for the analysis. PK samples were analyzed using liquid chromatography-tandem mass spectrometry (LC/MS/MS with API 4000 mass spectrometer) following solid-phase extraction. The upper and lower limits of quantitation (ULOQ and LLOQ) are 100 and 0.01 ng/mL, respectively.
Pharmacokinetic parameter estimates were calculated using non-compartmental methods (implemented using Microsoft Excel®). Half-lives were determined by visual inspection of the log concentration-time plots to choose the terminal phase (minimum of three detectable observations). Using linear regression of the chosen terminal phase observations, elimination rate constants were calculated as the negative slope of the regression line and half-life as the natural log of 2 divided by the elimination rate constant.
Ten subjects received single 1600 mg doses of ITMN-191 under both fasted and fed conditions with a 5-day washout period between dosing. For each condition, subjects were sampled within 1 hour before dosing and at 0.25, 0.5, 1, 1.5, 2, 2.5, 3, 4, 6, 8, 12, 18, 24, and 32 hours after dosing. Pharmacokinetic parameter estimates were calculated using non-compartmental methods. Half-life (t1/2) was determined by visual inspection of the log concentration-time plots to choose the terminal phase (minimum of three detectable observations). Using linear regression of the chosen terminal phase observations, elimination rate constants were calculated as the negative slope and half-life as the natural log of 2 divided by the elimination rate constant.

[2] = Simulated steady-state plasma and liver profiles: predicted AUC0-24, Cavg, % Time>EC90, Ctrough,liver/EC90; set-up: species or system human; conditions: 8 or 12 hour dose interval
Source text: Fitted parameters were used to compute predicted steady-state AUC0-24 and integrated average steady-state concentrations (Cavg) in plasma and in liver. Three hypothetical liver to plasma ratios (LPR) were considered given the variability seen in various animal species: 8 to 1, 30 to 1, and 100 to 1. The LPR seen in rats was approximately 8:1, LPR in dogs was approximately 25-40:1 and LPR in monkeys was approximately 80-125:1.
Using ADAPT 5, simulated plasma profiles were generated using individual subject fitted parameters and two different dosing regimens, 800 mg Q12H and 500 mg Q8H, dosed to steady-state.
By simulating plasma concentration profiles at steady-state, it is possible to predict ITMN-191 concentrations in liver and then index these to viral sensitivity. Summary statistics for the percentage of a dosing interval for which predicted liver concentrations remain above the EC90 (% Time>EC90) and the ratio of predicted trough concentration in the liver to the EC90 (Ctrough, liver/EC90) are provided in Table 12.

[3] = individual subjects, single 1600 mg dose, Fasted
[4] = individual subjects, single 1600 mg dose, Fed

CC(C)(C)OC(=O)N[C@H]1CCCCC/C=C\[C@@H]2C[C@@]2(C(=O)NS(=O)(=O)C2CC2)NC(=O)[C@@H]2C[C@@H](OC(=O)N3Cc4cccc(F)c4C3)CN2C1=O [ITMN-191]
Cmax ([1]; human, plasma, oral, 1600 mg, Geometric Mean of 10 subjects, single 1600 mg dose, Fed, read-out: Cmax): 422 ng/mL | half-life ([1]; human, plasma, oral, 1600 mg, Geometric Mean of 10 subjects, single 1600 mg dose, Fed, read-out: t½ (converted)): 150 min | AUC0-inf ([1]; human, plasma, oral, 1600 mg, Harmonic Mean of 10 subjects, single 1600 mg dose, Fasted, read-out: AUC0-inf): 639 ng·h/mL | Cmax ([1]; human, plasma, oral, 1600 mg, Harmonic Mean of 10 subjects, single 1600 mg dose, Fasted, read-out: Cmax): 453 ng/mL | half-life ([1]; human, plasma, oral, 1600 mg, Harmonic Mean of 10 subjects, single 1600 mg dose, Fasted, read-out: t½ (converted)): 137 min | AUC0-inf ([1]; human, plasma, oral, 1600 mg, Harmonic Mean of 10 subjects, single 1600 mg dose, Fed, read-out: AUC0-inf): 949 ng·h/mL | Cmax ([1]; human, plasma, oral, 1600 mg, Harmonic Mean of 10 subjects, single 1600 mg dose, Fed, read-out: Cmax): 326 ng/mL | half-life ([1]; human, plasma, oral, 1600 mg, Harmonic Mean of 10 subjects, single 1600 mg dose, Fed, read-out: t½ (converted)): 146 min | AUC0-inf ([1]; human, plasma, oral, 1600 mg, Mean of 10 subjects, single 1600 mg dose, Fasted, read-out: AUC0-inf): 691 ng·h/mL | Cmax ([1]; human, plasma, oral, 1600 mg, Mean of 10 subjects, single 1600 mg dose, Fasted, read-out: Cmax): 622 ng/mL | half-life ([1]; human, plasma, oral, 1600 mg, Mean of 10 subjects, single 1600 mg dose, Fasted, read-out: t½ (converted)): 149 min | AUC0-inf ([1]; human, plasma, oral, 1600 mg, Mean of 10 subjects, single 1600 mg dose, Fed, read-out: AUC0-inf): 1070 ng·h/mL | Cmax ([1]; human, plasma, oral, 1600 mg, Mean of 10 subjects, single 1600 mg dose, Fed, read-out: Cmax): 528 ng/mL | half-life ([1]; human, plasma, oral, 1600 mg, Mean of 10 subjects, single 1600 mg dose, Fed, read-out: t½ (converted)): 154 min | AUC0-inf ([1]; human, plasma, oral, 1600 mg, Median of 10 subjects, single 1600 mg dose, Fasted, read-out: AUC0-inf): 737 ng·h/mL | Cmax ([1]; human, plasma, oral, 1600 mg, Median of 10 subjects, single 1600 mg dose, Fasted, read-out: Cmax): 685 ng/mL | Tmax ([1]; human, plasma, oral, 1600 mg, Median of 10 subjects, single 1600 mg dose, Fasted, read-out: Tmax): 0.5 h | half-life ([1]; human, plasma, oral, 1600 mg, Median of 10 subjects, single 1600 mg dose, Fasted, read-out: t½ (converted)): 133 min | AUC0-inf ([1]; human, plasma, oral, 1600 mg, Median of 10 subjects, single 1600 mg dose, Fed, read-out: AUC0-inf): 1120 ng·h/mL | Cmax ([1]; human, plasma, oral, 1600 mg, Median of 10 subjects, single 1600 mg dose, Fed, read-out: Cmax): 449 ng/mL | Tmax ([1]; human, plasma, oral, 1600 mg, Median of 10 subjects, single 1600 mg dose, Fed, read-out: Tmax): 1.75 h | half-life ([1]; human, plasma, oral, 1600 mg, Median of 10 subjects, single 1600 mg dose, Fed, read-out: t½ (converted)): 158 min | half-life ([1]; human, plasma, oral, 1600 mg, individual subjects, single 1600 mg dose, Fed, read-out: t½ (converted)): 180 min | half-life ([1]; human, plasma, oral, in most subjects, read-out: terminal half-life): 60 to 120 min | AUC0-inf [1, 3]: 890 ng·h/mL and 360 ng·h/mL and 529 ng·h/mL and 507 ng·h/mL and 907 ng·h/mL and 809 ng·h/mL and 753 ng·h/mL and 652 ng·h/mL and 720 ng·h/mL and 779 ng·h/mL | Cmax [1, 3]: 892 ng/mL and 225 ng/mL and 548 ng/mL and 214 ng/mL and 1000 ng/mL and 860 ng/mL and 305 ng/mL and 909 ng/mL and 822 ng/mL and 442 ng/mL | AUC0-inf [1, 4]: 1895 ng·h/mL and 583 ng·h/mL and 939 ng·h/mL and 1116 ng·h/mL and 1225 ng·h/mL and 1209 ng·h/mL and 806 ng·h/mL and 1133 ng·h/mL and 1174 ng·h/mL | Cmax [1, 4]: 1510 ng/mL and 381 ng/mL and 199 ng/mL and 100 ng/mL and 444 ng/mL and 592 ng/mL and 454 ng/mL and 346 ng/mL and 760 ng/mL and 493 ng/mL | Tmax [1, 4]: 1.5 h and 4 h and 2 h | t½ [1, 4]: 2.01 h and 2.65 h and 1.80 h and 3.35 h and 2.16 h and 2.63 h and 1.82 h and 2.70 h and 3.48 h | subjects with an increase in AUC0-inf under fed conditions ([1]; single 400 mg dose): 8 of 10 | median percentage change in AUC0-inf between the fasted and fed conditions ([1]; single 400 mg dose): 26% | subjects with an increase in AUC0-inf under fed conditions ([1]; single 1600 mg dose): 10 of 10 | median percentage change in AUC0-inf between the fasted and fed conditions ([1]; single 1600 mg dose): 54% | accumulation associated with multiple doses [2]: negligible
